Reference: patent US8877748B2, “Heterocyclic fused anthraquinone derivatives, manufacturing method and pharmaceutical composition using thereof” (National Defense Medical Center, priority 2012, dated 2014)
Like-named read-outs stand apart in the source and are kept apart here. Each block holds one compound with its values, some of them ahead of it.

Key:
[1] = test system: PC-3 prostate cancer cell line; test: SRB assay cell viability, PC-3 prostate cancer cell line; format: cell-based, human; details: Homo sapiens
[2] = test system: NCI-H23; test: NCI one-dose screening, non-small cell lung cancer NCI-H23; format: cell-based, human; details: 10 μM
[3] = test system: NCI-H460; test: NCI one-dose screening, non-small cell lung cancer NCI-H460; format: cell-based, human; details: 10 μM
[4] = test system: T-47D; test: NCI one-dose screening, breast cancer T-47D; format: cell-based, human; details: 10 μM
[5] = test system: MALME-3M; test: NCI one-dose screening, melanoma MALME-3M; format: cell-based, human; details: 10 μM
[6] = test system: HL-60, TB; test: NCI one-dose screening, leukemia HL-60, TB; format: cell-based, human; details: 10 μM
[7] = test system: SF-539; test: NCI one-dose screening, CNS cancer SF-539; format: cell-based, human; details: 10 μM
[8] = test system: CAKI-1; test: NCI one-dose screening, renal cancer CAKI-1; format: cell-based, human; details: 10 μM
[9] = test system: OVCAR-8; test: NCI one-dose screening, ovarian cancer OVCAR-8; format: cell-based, human; details: 10 μM
[10] = test system: M14; test: NCI one-dose screening, melanoma M14; format: cell-based, human; details: 10 μM
[11] = test system: OVCAR-4; test: NCI one-dose screening, ovarian cancer OVCAR-4; format: cell-based, human; details: 10 μM
[12] = test system: TK-10; test: NCI one-dose screening, renal cancer TK-10; format: cell-based, human; details: 10 μM
[13] = test system: SNB-19; test: NCI one-dose screening, CNS cancer SNB-19; format: cell-based, human; details: 10 μM
[14] = test system: SK-OV-3; test: NCI one-dose screening, ovarian cancer SK-OV-3; format: cell-based, human; details: 10 μM
[15] = test system: HOP-92; test: NCI one-dose screening, non-small cell lung cancer HOP-92; format: cell-based, human; details: 10 μM
[16] = test system: SK-MEL-2; test: NCI one-dose screening, melanoma SK-MEL-2; format: cell-based, human; details: 10 μM
[17] = test system: human tumor cell lines; test: NCI one-dose screening, Mean / Delta / Range of growth percent over all tested cell lines; format: cell-based; details: 10 μM
[18] = test system: UACC-257; test: NCI one-dose screening, melanoma UACC-257; format: cell-based, human; details: 10 μM
[19] = test system: SK-MEL-28; test: NCI one-dose screening, melanoma SK-MEL-28; format: cell-based, human; details: 10 μM
[20] = test system: SNB-75; test: NCI one-dose screening, CNS cancer SNB-75; format: cell-based, human; details: 10 μM
[21] = test system: HCT-15; test: NCI one-dose screening, colon cancer HCT-15; format: cell-based, human; details: 10 μM
[22] = test system: IGROV1; test: NCI one-dose screening, ovarian cancer IGROV1; format: cell-based, human; details: 10 μM
[23] = test system: HCT-116; test: NCI one-dose screening, colon cancer HCT-116; format: cell-based, human; details: 10 μM
[24] = test system: PC-3; test: NCI one-dose screening, prostate cancer PC-3; format: cell-based, human; details: 10 μM
[25] = test system: NCl/ADR-RES; test: NCI one-dose screening, breast cancer NCl/ADR-RES; format: cell-based, human; details: 10 μM; listed under Ovarian cancer
[26] = test system: U251; test: NCI one-dose screening, CNS cancer U251; format: cell-based, human; details: 10 μM
[27] = test system: NCI-H522; test: NCI one-dose screening, non-small cell lung cancer NCI-H522; format: cell-based, human; details: 10 μM
[28] = test system: K562cell line; test: NCI one-dose screening, leukemia K562; format: cell-based, human; details: 10 μM
[29] = test system: A549/ATCC; test: NCI one-dose screening, non-small cell lung cancer A549/ATCC; format: cell-based, human; details: 10 μM
[30] = test system: COLO 205; test: NCI one-dose screening, colon cancer COLO 205; format: cell-based, human; details: 10 μM
[31] = test system: PRMI-8226 cell line; test: NCI one-dose screening, leukemia PRMI-8226; format: cell-based, human; details: 10 μM
[32] = test system: HS 578-T; test: NCI one-dose screening, breast cancer HS 578-T; format: cell-based, human; details: 10 μM; Breast cancer
[33] = test system: SF-295; test: NCI one-dose screening, CNS cancer SF-295; format: cell-based, human; details: 10 μM
[34] = test system: UACC-62; test: NCI one-dose screening, melanoma UACC-62; format: cell-based, human; details: 10 μM
[35] = test system: SK-MEL-5; test: NCI one-dose screening, melanoma SK-MEL-5; format: cell-based, human; details: 10 μM
[36] = test system: RXF, 393; test: NCI one-dose screening, renal cancer RXF, 393; format: cell-based, human; details: 10 μM
[37] = test system: UO-31; test: NCI one-dose screening, renal cancer UO-31; format: cell-based, human; details: 10 μM
[38] = test system: MDA, -MB-435; test: NCI one-dose screening, breast cancer MDA, -MB-435; format: cell-based, human; details: 10 μM; listed under Melanoma
[39] = test system: MDA-MB-231/ATCC; test: NCI one-dose screening, breast cancer MDA-MB-231/ATCC; format: cell-based, human; details: 10 μM
[40] = test system: LOX IMVI; test: NCI one-dose screening, melanoma LOX IMVI; format: cell-based, human; details: 10 μM
[41] = test system: CCRF-CEM; test: NCI screening platform one-dose single concentration screening, leukemia CCRF-CEM; format: cell-based, human; details: 10 μM
[42] = test system: MCF7; test: NCI one-dose screening, breast cancer MCF7; format: cell-based, human; details: 10 μM
[43] = test system: KM12; test: NCI one-dose screening, colon cancer KM12; format: cell-based, human; details: 10 μM
[44] = test system: SF-268; test: NCI one-dose screening, CNS cancer SF-268; format: cell-based, human; details: 10 μM
[45] = test system: MDA-MB-468; test: NCI one-dose screening, breast cancer MDA-MB-468; format: cell-based, human; details: 10 μM
[46] = test system: SR; test: NCI one-dose screening, leukemia SR; format: cell-based, human; details: 10 μM
[47] = test system: OVCAR-3; test: NCI one-dose screening, ovarian cancer OVCAR-3; format: cell-based, human; details: 10 μM
[48] = test system: 786-O; test: NCI one-dose screening, renal cancer 786-O; format: cell-based, human; details: 10 μM
[49] = test system: NCI-H322M; test: NCI one-dose screening, non-small cell lung cancer NCI-H322M; format: cell-based, human; details: 10 μM; Non-small cell lung cancer
[50] = test system: SN12C; test: NCI one-dose screening, renal cancer SN12C; format: cell-based, human; details: 10 μM
[51] = test system: DU145; test: NCI one-dose screening, prostate cancer DU145; format: cell-based, human; details: 10 μM
[52] = test system: HOP-62; test: NCI one-dose screening, non-small cell lung cancer HOP-62; format: cell-based, human; details: 10 μM
[53] = test system: MOLT-4; test: NCI one-dose screening, leukemia MOLT-4; format: cell-based, human; details: 10 μM
[54] = NCI one-dose screening, renal cancer A489; format: cell-based, human; details: 10 μM
[55] = test system: BT-549; test: NCI one-dose screening, breast cancer BT-549; format: cell-based, human; details: 10 μM
[56] = test system: HCC-2998; test: NCI one-dose screening, colon cancer HCC-2998; format: cell-based, human; details: 10 μM
[57] = PC-3 prostate cancer cell line, Table II prints no unit, μM printed, read-out: SRB assay: 50% inhibition of cancer cell proliferation of sample concentration (IC50) of PC-3 prostate cancer cell line

IC50 [1, 57]: 7.44 µM
melting point: 243 to 244 °C
SMILES: Cc1ccc(C)c(Sc2cc3c(c4nsnc24)C(=O)c2ccccc2C3=O)c1 [C20, 4-(2,5-dimethyl-phenyl-thio)anthra[2,1-c] [1,2,5]thiadiazol-6,11-dione]

SMILES: O=C1c2ccccc2C(=O)c2c1cc(SCc1ccccc1)c1nsnc21 [C21, 4-(benzyl-thio)anthra[2,1-c][1,2,5] thiadiazol-6,11-dione]
Growth Percent NCI-H23 [2]: 101.09%
Growth Percent NCI-H460 [3]: 98.44%
Growth Percent T-47D [4]: −46.11%
Growth Percent MALME-3M [5]: 80.81%
Growth Percent HL-60(TB) [6]: 70.32%
Growth Percent SF-539 [7]: 68.26%
Growth Percent CAKI-1 [8]: 73.77%
Growth Percent OVCAR-8 [9]: 6.01%
Growth Percent M14 [10]: 86.54%
Growth Percent OVCAR-4 [11]: −68.15%
Growth Percent TK-10 [12]: 129.90%
Growth Percent SNB-19 [13]: 94.26%
Growth Percent SK-OV-3 [14]: 80.29%
Growth Percent HOP-92 [15]: 83.65%
Growth Percent SK-MEL-2 [16]: −3.95%
Growth Percent Delta ([17]; delta over all cell lines): 136.92%
Growth Percent Mean ([17]; mean over all cell lines): 51.63%
Growth Percent Range ([17]; range over all cell lines): 215.19%
Growth Percent UACC-257 [18]: 58.86%
Growth Percent SK-MEL-28 [19]: 95.00%
Growth Percent SNB-75 [20]: 39.58%
Growth Percent HCT-15 [21]: 54.72%
Growth Percent IGROV1 [22]: 43.88%
Growth Percent HCT-116 [23]: 53.06%
Growth Percent PC-3 [24]: 38.44%
Growth Percent NCI/ADR-RES [25]: 62.34%
Growth Percent U251 [26]: 30.51%
Growth Percent NCI-H522 [27]: 92.01%
Growth Percent K562 [28]: 10.51%
Growth Percent A549/ATCC [29]: 101.64%
Growth Percent COLO 205 [30]: 102.93%
Growth Percent RPMI-8226 [31]: 43.23%
Growth Percent HS 578T [32]: 59.96%
Growth Percent SF-295 [33]: 91.56%
Growth Percent UACC-62 [34]: 43.08%
Growth Percent SK-MEL-5 [35]: 22.53%
IC50 [1, 57]: > 15 µM
IC50 ([1]; PC-3 prostate cancer cells, read-out: IC50 in PC-3 prostate cancer cells (cell viability analysis)): > 15 µM
Growth Percent RXF 393 [36]: 68.12%
Growth Percent UO-31 [37]: 73.75%
Growth Percent MDA-MB-435 [38]: −48.29%
Growth Percent MDA-MB-231/ATCC [39]: −13.36%
Growth Percent LOX IMVI [40]: 7.49%
Growth Percent CCRF-CEM [41]: 0.65%
Growth Percent MCF7 [42]: 56.44%
Growth Percent KM12 [43]: 103.02%
Growth Percent SF-268 [44]: 56.01%
Growth Percent MDA-MB-468 [45]: −85.29%
Growth Percent SR [46]: 1.25%
Growth Percent OVCAR-3 [47]: 25.27%
Growth Percent 786-0 [48]: 92.60%
Growth Percent NCI-H322M [49]: 55.30%
Growth Percent SN12C [50]: 66.11%
Growth Percent DU145 [51]: 82.23%
Growth Percent HOP-62 [52]: 94.98%
Growth Percent MOLT-4 [53]: −20.97%
Growth Percent A498 [54]: 88.61%
Growth Percent BT-549 [55]: 96.19%
Growth Percent HCC-2998 [56]: 115.02%
